Data from patent US11135234B2, “Effective aminoglycoside antibiotic for multidrug-resistant bacteria” (MICROBIAL CHEMISTRY RESEARCH FOUNDATION, priority 2015, dated 2021).
Converted amounts (≈) assume the structure as drawn.

How the values were obtained:
[1] = system: A. baumannii ATCC BAA-1710; experiment: MIC, agar plate dilution method, A. baumannii ATCC BAA-1710; type: cell-based, Acinetobacter baumannii; settings: for minimal inhibitory concentration (MIC): A. baumannii ATCC BAA-1710, MDRA; for MIC: Acinetobacter baumannii, ATCCBAA1710, A. baumannii ATCC BAA-1710, MDRA, read-out: minimal inhibitory concentration (MIC)
Procedure: (§1) As for the representative compounds of a new aminoglycoside antibiotic of the present invention described in Examples, the minimal inhibitory concentration (MIC, μg/mL) was measured for various assay strains of bacteria using an agar plate dilution method in accordance with the method described in the Japan Society of Chemotherapy.

P. aeruginosa PAO1/GN315 = experiment: MIC, agar plate dilution method, P. aeruginosa PAO1/GN315; type: cell-based, Pseudomonas aeruginosa; settings: for minimal inhibitory concentration (MIC): P. aeruginosa PAO1/GN315, AMK-resistant; for MIC: Pseudomonas aeruginosa, read-out: minimal inhibitory concentration (MIC), P. aeruginosa PAO1/GN315, AMK-resistant
Procedure: as §1

S. marcescens TH-0447 = experiment: MIC, agar plate dilution method, S. marcescens TH-0447; type: cell-based, Serratia marcescens; settings: for minimal inhibitory concentration (MIC): S. marcescens TH-0447, AMK-resistant; for MIC: Serratia marcescens, TH0447, S. marcescens TH-0447, AMK-resistant, read-out: minimal inhibitory concentration (MIC)
Procedure: as §1

S. aureus MF490 = experiment: MIC, agar plate dilution method, S. aureus MF490; type: cell-based, Staphylococcus aureus; settings: for minimal inhibitory concentration (MIC): S. aureus MF490, MRSA; for MIC: Staphylococcus aureus, MRSA, read-out: minimal inhibitory concentration (MIC)
Procedure: as §1

P. aeruginosa MSC01035 = experiment: MIC, agar plate dilution method, P. aeruginosa MSC01035; type: cell-based, Pseudomonas aeruginosa; settings: P. aeruginosa MSC01035, ABK-resistant; for MIC: Pseudomonas aeruginosa, read-out: minimal inhibitory concentration (MIC)
Procedure: as §1

[2] = system: K. pneumoniae ATCC BAA-2146; experiment: MIC, agar plate dilution method, K. pneumoniae ATCC BAA-2146; type: cell-based, Klebsiella pneumoniae; settings: for minimal inhibitory concentration (MIC): K. pneumoniae ATCC BAA-2146, NDM-producing strain; for MIC: Klebsiella pneumoniae, ATCCBAA2146, K. pneumoniae ATCC BAA-2146, NDM-producing strain, read-out: minimal inhibitory concentration (MIC)
Procedure: as §1

[3] = system: K. pneumoniae ATCC BAA-1705; experiment: MIC, agar plate dilution method, K. pneumoniae ATCC BAA-1705; type: cell-based, Klebsiella pneumoniae; settings: for minimal inhibitory concentration (MIC): K. pneumoniae ATCC BAA-1705, KPC-producing strain; for MIC: Klebsiella pneumoniae, ATCCBAA1705, K. pneumoniae ATCC BAA-1705, KPC-producing strain, read-out: minimal inhibitory concentration (MIC)
Procedure: as §1

S. marcescens GN6944 = experiment: MIC, agar plate dilution method, S. marcescens GN6944; type: cell-based, Serratia marcescens; settings: S. marcescens GN6944, GM-resistant; for MIC: Serratia marcescens, read-out: minimal inhibitory concentration (MIC)
Procedure: as §1

P. aeruginosa PAO1 = experiment: MIC, agar plate dilution method, P. aeruginosa PAO1; type: cell-based, Pseudomonas aeruginosa; settings: for minimal inhibitory concentration (MIC): P. aeruginosa PAO1, Sensitive bacterium; for MIC: Pseudomonas aeruginosa, PAO1, P. aeruginosa PAO1, Sensitive bacterium, read-out: minimal inhibitory concentration (MIC)
Procedure: as §1

S. aureus RN4220/pMS520 = experiment: MIC, agar plate dilution method, S. aureus RN4220/pMS520; type: cell-based, Staphylococcus aureus; settings: for minimal inhibitory concentration (MIC): S. aureus RN4220/pMS520, MRSA; for MIC: Staphylococcus aureus, MRSA, read-out: minimal inhibitory concentration (MIC), S. aureus RN4220/pMS520, MRSA
Procedure: as §1

E. faecium ATCC19434 = experiment: MIC, agar plate dilution method, E. faecium ATCC19434; type: cell-based, Enterococcus faecium; settings: for minimal inhibitory concentration (MIC): E. faecium ATCC19434; for MIC: Enterococcus faecium, ATCC19434, E. faecium ATCC19434, read-out: minimal inhibitory concentration (MIC)
Procedure: as §1

P. aeruginosa MSC17707 = experiment: MIC, agar plate dilution method, P. aeruginosa MSC17707; type: cell-based, Pseudomonas aeruginosa; settings: for minimal inhibitory concentration (MIC): P. aeruginosa MSC17707, AMK-resistant; for MIC: Pseudomonas aeruginosa, MSC17707, P. aeruginosa MSC17707, AMK-resistant, read-out: minimal inhibitory concentration (MIC)
Procedure: as §1

E. coli JM109/pMW218 = experiment: MIC, agar plate dilution method, E. coli JM109/pMW218; type: cell-based, Escherichia coli; settings: for minimal inhibitory concentration (MIC): E. coli JM109/pMW218, Sensitive bacterium; for MIC: Escherichia coli, JM109/PMW218, E. coli JM109/pMW218, Sensitive bacterium, read-out: minimal inhibitory concentration (MIC)
Procedure: as §1

S. aureus RN4220 = experiment: MIC, agar plate dilution method, S. aureus RN4220; type: cell-based, Staphylococcus aureus; settings: for minimal inhibitory concentration (MIC): S. aureus RN4220, Sensitive bacterium; for MIC: Staphylococcus aureus, RN4220, S. aureus RN4220, Sensitive bacterium, read-out: minimal inhibitory concentration (MIC)
Procedure: as §1

Compound	minimal inhibitory concentration (MIC) [1] [µg/mL]	minimal inhibitory concentration (MIC) (P. aeruginosa PAO1/GN315) [µg/mL]	minimal inhibitory concentration (MIC) (S. marcescens TH-0447) [µg/mL]	minimal inhibitory concentration (MIC) (S. aureus MF490) [µg/mL]	minimal inhibitory concentration (MIC) (P. aeruginosa MSC01035) [µg/mL]	minimal inhibitory concentration (MIC) [2] [µg/mL]	minimal inhibitory concentration (MIC) [3] [µg/mL]	minimal inhibitory concentration (MIC) (S. marcescens GN6944) [µg/mL]	minimal inhibitory concentration (MIC) (P. aeruginosa PAO1) [µg/mL]	minimal inhibitory concentration (MIC) (S. aureus RN4220/pMS520) [µg/mL]	minimal inhibitory concentration (MIC) (E. faecium ATCC19434) [µg/mL]	minimal inhibitory concentration (MIC) (P. aeruginosa MSC17707) [µg/mL]	minimal inhibitory concentration (MIC) (E. coli JM109/pMW218) [µg/mL]	minimal inhibitory concentration (MIC) (S. aureus RN4220) [µg/mL]	MIC [1] [µg/mL]	MIC (P. aeruginosa PAO1/GN315) [µg/mL]	MIC (S. marcescens TH-0447) [µg/mL]	MIC (S. aureus MF490) [µg/mL]	MIC (P. aeruginosa MSC01035) [µg/mL]	MIC [2] [µg/mL]	further results
4″-N-(trans-1,4-4-aminocyclohexyl)apramycin [Compound A4-g]	32	16	16	16	32	2	2	16	16	4	32	32	2	4	–	–	–	–	–	–	–
CNC1C(O[C@H]2OC(CO)[C@@H](NC(=O)CN)[C@H](O)C2O)O[C@H]2CC(N)[C@@H](O[C@@H]3C(N)C[C@@H](N)C(O)[C@H]3O)OC2C1O (single isomer, unassigned) [Compound V1-a, 4″-N-glycylapramycin]	8 (≈ 13.4 µM)	4 (≈ 6.7 µM)	8 (≈ 13.4 µM)	16 (≈ 26.8 µM)	4 (≈ 6.7 µM)	2 (≈ 3.35 µM)	2 (≈ 3.35 µM)	8 (≈ 13.4 µM)	4 (≈ 6.7 µM)	4 (≈ 6.7 µM)	32 (≈ 53.6 µM)	8 (≈ 13.4 µM)	2 (≈ 3.35 µM)	4 (≈ 6.7 µM)	–	–	–	–	–	–	–
CNC1C(O[C@H]2OC(CO)[C@@H](NC(=O)CN)[C@H](O)C2O)O[C@H]2CC(N)[C@@H](O[C@@H]3C(N)C[C@@H](N)C(O)[C@H]3O)OC2C1O (single isomer, unassigned) [Compound V1-i, 5-epi-4″-N-glycylapramycin]	–	–	–	–	–	–	–	–	–	–	–	2 (≈ 3.35 µM)	–	–	4 (≈ 6.7 µM)	4 (≈ 6.7 µM)	8 (≈ 13.4 µM)	8 (≈ 13.4 µM)	4 (≈ 6.7 µM)	1 (≈ 1.68 µM)	MIC [3]: 2 µg/mL (≈ 3.35 µM); MIC (S. marcescens GN6944): 8 µg/mL (≈ 13.4 µM); MIC (P. aeruginosa PAO1): 2 µg/mL (≈ 3.35 µM); MIC (S. aureus RN4220/pMS520): 2 µg/mL (≈ 3.35 µM); MIC (E. faecium ATCC19434): 16 µg/mL (≈ 26.8 µM); MIC (E. coli JM109/pMW218): 1 µg/mL (≈ 1.68 µM); MIC (S. aureus RN4220): 2 µg/mL (≈ 3.35 µM)
NCC[C@H](O)C(=O)N[C@@H]1C[C@H](N)[C@@H](O[C@H]2O[C@H](CN)CC[C@H]2N)[C@H](O)[C@H]1O[C@H]1O[C@H](CO)[C@@H](O)[C@H](N)[C@H]1O [ABK, arbekacin, reference compound]	–	–	–	–	–	–	–	–	–	–	–	–	–	–	32 (≈ 57.9 µM)	8 (≈ 14.5 µM)	64 (≈ 116 µM)	64 (≈ 116 µM)	> 64	> 64	MIC [3]: 16 µg/mL (≈ 29 µM); MIC (S. marcescens GN6944): 8 µg/mL (≈ 14.5 µM); MIC (P. aeruginosa PAO1): 2 µg/mL (≈ 3.62 µM); MIC (S. aureus RN4220/pMS520): 1 µg/mL (≈ 1.81 µM); MIC (E. faecium ATCC19434): 8 µg/mL (≈ 14.5 µM); MIC (P. aeruginosa MSC17707): 4 µg/mL (≈ 7.24 µM); MIC (E. coli JM109/pMW218): 0.5 µg/mL (≈ 0.905 µM); MIC (S. aureus RN4220): 1 µg/mL (≈ 1.81 µM)
NCC[C@H](O)C(=O)N[C@@H]1C[C@H](N)[C@@H](O[C@H]2O[C@H](CN)[C@@H](O)[C@H](O)[C@H]2O)[C@H](O)[C@H]1O[C@H]1O[C@H](CO)[C@@H](O)[C@H](N)[C@H]1O [AMK, amikacin, reference compound]	–	–	–	–	–	–	–	–	–	–	–	–	–	–	64 (≈ 109 µM)	64 (≈ 109 µM)	> 64	> 64	> 64	> 64	MIC [3]: 32 µg/mL (≈ 54.6 µM); MIC (S. marcescens GN6944): 8 µg/mL (≈ 13.7 µM); MIC (P. aeruginosa PAO1): 2 µg/mL (≈ 3.42 µM); MIC (S. aureus RN4220/pMS520): 64 µg/mL (≈ 109 µM); MIC (E. faecium ATCC19434): 32 µg/mL (≈ 54.6 µM); MIC (P. aeruginosa MSC17707): 32 µg/mL (≈ 54.6 µM); MIC (E. coli JM109/pMW218): 0.5 µg/mL (≈ 0.854 µM); MIC (S. aureus RN4220): 2 µg/mL (≈ 3.42 µM)
CNC1C(CO)OC(OC2OC3CC(N)C(OC4C(N)CC(N)C(O)C4O)OC3C(O)C2NC)C(O)C1O (stereo not shown) [Compound A4-a, 4″-N-methylapramycin]	16 (≈ 28.9 µM)	8 (≈ 14.5 µM)	8 (≈ 14.5 µM)	16 (≈ 28.9 µM)	8 (≈ 14.5 µM)	2 (≈ 3.61 µM)	2 (≈ 3.61 µM)	8 (≈ 14.5 µM)	8 (≈ 14.5 µM)	4 (≈ 7.23 µM)	32 (≈ 57.8 µM)	8 (≈ 14.5 µM)	2 (≈ 3.61 µM)	4 (≈ 7.23 µM)	–	–	–	–	–	–	–
CNC1C(O[C@H]2OC(CO)[C@@H](NCCCN)[C@H](O)C2O)O[C@H]2CC(N)[C@@H](O[C@@H]3C(N)C[C@@H](N)C(O)[C@H]3O)OC2C1O (stereo partly shown) [Compound A4-b, 4″-N-(3-aminopropyl)apramycin]	–	–	–	–	–	–	–	–	–	–	–	–	–	–	8 (≈ 13.4 µM)	8 (≈ 13.4 µM)	8 (≈ 13.4 µM)	8 (≈ 13.4 µM)	8 (≈ 13.4 µM)	2 (≈ 3.35 µM)	MIC [3]: 2 µg/mL (≈ 3.35 µM); MIC (S. marcescens GN6944): 8 µg/mL (≈ 13.4 µM); MIC (P. aeruginosa PAO1): 4 µg/mL (≈ 6.7 µM); MIC (S. aureus RN4220/pMS520): 4 µg/mL (≈ 6.7 µM); MIC (E. faecium ATCC19434): 16 µg/mL (≈ 26.8 µM); MIC (P. aeruginosa MSC17707): 8 µg/mL (≈ 13.4 µM); MIC (E. coli JM109/pMW218): 2 µg/mL (≈ 3.35 µM); MIC (S. aureus RN4220): 4 µg/mL (≈ 6.7 µM)
CNC1C(OC2OC(CO)C(NCC3(N)CCCC3)C(O)C2O)OC2CC(N)C(OC3C(N)CC(N)C(O)C3O)OC2C1O (stereo not shown) [Compound A4-c, 4″-N-((1-aminocyclopentyl)methyl)apramycin]	32 (≈ 50.3 µM)	16 (≈ 25.1 µM)	8 (≈ 12.6 µM)	16 (≈ 25.1 µM)	16 (≈ 25.1 µM)	1 (≈ 1.57 µM)	1 (≈ 1.57 µM)	8 (≈ 12.6 µM)	16 (≈ 25.1 µM)	4 (≈ 6.28 µM)	16 (≈ 25.1 µM)	32 (≈ 50.3 µM)	1 (≈ 1.57 µM)	4 (≈ 6.28 µM)	–	–	–	–	–	–	–
